Measured values as given in US12534444B2, “Treatment of cancer/inhibition of metastasis” (Celex Oncology Innovations Limited, priority 2010, dated 2026).

System: MDA-MB-231 cells
Experiment: Single-cell adhesion assay (SCAMA, detachment negative pressure)
Type: cell-based, human
Details: 24 hours
Method: FIG. 4 is a schematic illustration of the single-cell adhesion measurement apparatus (SCAMA) first described in the paper by Palmer et al. (2008). Human breast cancer cells from the MDA-MB-231 cell line were plated at a density of 2.5×10^4 cells/ml and left to settle in a cell culture dish 401 for 48 hours prior to measurements. Medium was removed and 2 ml of the drug under study was applied for 10 minutes. Adhesion was measured using a glass micropipette 402 connected to a vacuum pump 403 via plastic tubing 404. The tip of the micropipette was drawn to about 20 μm (range, 17-24 μm) tip diameter. The vacuum pump was used to create negative pressure inside a reservoir 405 so that the negative pressure could be applied to the tip of the micropipette by pressing the thumb to the open end of a sealable T-piece 406. […] The pressure was measured using a digital manometer 409 connected to a computer 410 via a RS232 cable 411. Using a micromanipulator 412, the micropipette 402 was positioned on the periphery of a single cell. […] The negative pressure required to detach the cell was recorded on the computer as a pressure spike. The peak of the spike (“detachment negative pressure” (DNP)) was used as a measure of the cell's adhesiveness. Using this technique, several recordings could be made from a single dish within minutes. […] In order to test for the reversibility of a given effect, the pharmacological agent was washed off, fresh medium was added and the plate was incubated for a further 10 minutes prior to re-measurement. Each treatment was carried out on at least two dishes of cells, at least 100 cells per dish were measured, and the experiment was repeated three times (with corresponding controls). In the single cell adhesion experiments, hypoxia was induced chemically by application of hydrogen peroxide (1-500 μM) for 24 hours.

For `OO` [hydrogen peroxide], the “mean detachment negative pressure (ΔDNP versus untreated control)” value (hydrogen peroxide 1 μM) was “approximately −9%”, the “mean detachment negative pressure (ΔDNP versus untreated control)” value (hydrogen peroxide 10 μM) was “approximately −14%” and the “mean detachment negative pressure (ΔDNP versus untreated control)” value (hydrogen peroxide 100 μM) was “approximately −20%”.
